Results published in patent publication US20240140935A1, “NON-COVALENT DIMER CATION, SALT THEREOF, PREPARATION METHOD THEREOF, AND USE THEREOF AS ANTIOXIDANT” (SUZHOU PROTONATION CHAIN BIOTECHNOLOGY CO., LTD., priority 2022, published 2024).

Assays:
[1] = system: L02 human normal hepatocytes; test: Carbon tetrachloride hepatotoxicity cell model, levels of ROS, MDA, GSH, SOD and ATP in cell lysate; type: cell-based
Method: The salts of Example 1, Example 16, and Example 13 were taken as the compound of experimental groups, vitamin E was taken as the compound of control group. A blank group (without carbon tetrachloride) and a model group (with carbon tetrachloride but with neither the salt of the present application nor vitamin E) were also set.
L02 human normal hepatocytes were uniformly inoculated into a 96-well plate, about 5,000 cells per well. The cells were cultured in a complete DMEM for 6 h. After the cells were completely adhered to the wall, all the media were removed, 100 μL of serum-free DMEM containing 0.02 mg/mL carbon tetrachloride (for the blank group, a serum-free medium without carbon tetrachloride) was added to each well, and the cells were cultured for 12 h. Then, all the media were removed, 100 μL of serum-free DMEM containing […] compound of experimental groups or control group was added to each well (for the blank group and the model group, serum-free DMEM without the compound) according to the groups, and the cells were cultured for 24 h.
(§1) 50 μL of RIPA lysis buffer (strong) was added to each well to lyse the cells, and levels of reactive oxygen species, malondialdehyde, glutathione, superoxide dismutase, and adenosine triphosphate in the cells of each group were detected by using corresponding chemical reagents.

[2] = system: L02 human normal hepatocytes; test: Palmitate-induced non-alcoholic fatty liver disease cell model, levels of ROS, MDA, GSH, SOD and ATP in cell lysate; type: cell-based
Method: The salts of Example 1, Example 16, and Example 13 were taken as the compound of experimental groups, vitamin E was taken as the compound of control group. A blank group (without palmitate) and a model group (with palmitate but with neither the salt of the present application nor vitamin E) were also set.
L02 human normal hepatocytes were uniformly inoculated into a 96-well plate, about 5,000 cells per well. The cells were cultured in a complete DMEM for 6 h. After the cells were completely adhered to the wall, all the media were removed, 100 μL of serum-free medium containing 0.05 mg/mL palmitate was added to each well (for the blank group, a serum-free medium without palmitate), and the cells were cultured for 24 h.
Then, all the media were removed, 100 μL of serum-free DMEM containing […] compound of experimental groups or control group was added to each well (for the blank group and the model group, serum-free DMEM without the compound) according to the groups, and the cells were cultured for 24 h.
as §1

vitamin E
level of ROS in the cells ([1]; FIG. 6 (a)): only slightly reduce | level of MDA in the cells ([1]; FIG. 6 (b)): only slightly reduce | level of GSH in the cells ([1]; FIG. 6 (c)): only slightly increase | level of SOD in the cells ([1]; FIG. 6 (d)): only slightly increase | level of ATP in the cells ([1]; FIG. 6 (e)): only partially increase | level of ROS in the cells ([2]; FIG. 4 (a)): only slightly reduce | level of MDA in the cells ([2]; FIG. 4 (b)): only slightly reduce | level of GSH in the cells ([2]; FIG. 4 (c)): only slightly increase | level of SOD in the cells ([2]; FIG. 4 (d)): only slightly increase | level of ATP in the cells ([2]; FIG. 4 (e)): only partially increase
